This is an account of results in patent publication US10383841B2, “Antimicrobial and antiinflammatory composition” (Denovastella AB, priority 2005, dated 2019).

Holding throughout (type): cell-based
Assay [1] relates to M. furfur CBS7019. The experiment in a line: Agar dilution method, MIC. On the procedure:
(§1) The five strains of Malassezia were CBS7019 M. Furfur, CBS 1871 M. Pachydermatis, CBS7956 M. Slooffiae, CBS7966 M. Globosa and 42132 M. Sympodialis. The Staphylococcus aureus strain and Candida albicans H29 strain (grown on mycobiotic plates). Malassezias were cultured on PO plates and kept in room temperature. Candida albicans were grown on mycobiotic plates at room temperature. Preceding the first experiment the yeasts were reinoculated and stored for five days in a 32° C. thermostat. Afterwards they were continually reinoculated every week to ensure viable strains. S. aureus were refrigerated and reinoculated on a horse blood plate and incubated for one day in 37° C. before being included in any study.
(§2) DST-TG-agar (diagnostic sensitivity test agar) with a glycerol monostearate and tween content to meet the growth requirements of the Malassezias was used. […] The agar was obtained from the Microbiological Laboratories, Sahlgrenska, Gothenburg, Sweden. When received the agar was in a liquid form requiring storage at 55° C.
(§3) The oil extract from example 1 were diluted in DMF (dimethyl formamide) producing a stock solution with 20% extract and 80% DMF. A secondary stock solution was made by diluting a decided volume of the first stem solution in PBS. Finally the solutions were mixed with the soluble agar to obtain concentrations of the extract of 1, 0.5, 0.25, 0.125, 0.0625, 0.05, 0.025 and 0.0125% in the agar. Since the ethanol extract readily dissolved with the agar no emulsifier was needed. The ethanol extract was diluted directly with the agar to obtain concentrations of the extraxt of 1, 0.5, 0.125, 0.1, 0.05, 0.0125, 0.01 and 0.005% in the agar. No precipitations or supernatants were observed.
(§4) Microbes were harvested and suspended into PBS and manually counted in Barker chambers to receive concentrations of 10^7 cells/ml for the Malassezias and 10^5 cells/ml for the Staphylococci and Candida. Due to poor growth of M. globosa, M. slooffiae and emulsions were modified to contain 10^8 cells/ml in the third experiment.
(§5) Using a Pasteur micropipette, plates were inoculated with 20 μl of emulsion. Plates were inoculated with either three or four microorganisms. Control plates containing only agar and plates with mirrored concentration series of DMF and ethanol were made. Additionally, all plates had paralleled controls.
(§6) Plates were incubated in 37° C. for approximately 3 days and then read.
A general note: In agar dilution, organisms are placed on agar that contains the substance at set levels.

The subject of assay [2] is M. slooffiae CBS7956. Put plainly: Agar dilution method, MIC. Here is the method: as §1, §2, §3, §4, §5, §6
Assay [3] concerns Candida albicans H29. The experiment in a line: Agar dilution method, MIC. On the procedure: as §1, §2, §3, §4, §5, §6
For assay [4], the system named is M. pachydermatis CBS 1871. The experiment in a line: Agar dilution method, MIC. Here is the method: as §1, §2, §3, §4, §5, §6
The test system of assay [5] is Staphylococcus aureus. Put plainly: Agar dilution method, MIC. On the procedure: as §1, §2, §3, §4, §5, §6
Assay [6] has as its system M. globosa CBS7966. Put plainly: Agar dilution method, MIC. Here is the method:
as §1, §2, §3, §4, §5, §6

In assay [7] the test system is M. sympodialis 42132. The experiment in a line: Agar dilution method, MIC. Here is the method: as §1, §2, §3, §4, §5, §6
In assay [8] the test system is all microorganisms (five Malassezia strains, Candida albicans, Staphylococcus aureus). Put plainly: Agar dilution method, summary over all microorganisms. On the procedure: as §1, §2, §3
Microbes were harvested and suspended into PBS and manually counted in Barker chambers to receive concentrations of 10^7 cells/ml for the Malassezias and 10^5 cells/ml for the Staphylococci and Candida. […]
as §6

Where [9] appears, read: Experiment II, — = no MIC up to maximum titre of that line (Cineole 0.125%, DNS in ethanol 2.5% 0.025%).
[10] abbreviates: Experiment II, agar control: poor growth.

Structures are written as SMILES.

As for `C=CC1(C)CCC(C(C)C(=O)CC=C(C)C)O1` (stereo not drawn) [Davanone, davanone], the MIC came to 0.0625% in assay [1] (setting [9]); 0.0125% in assay [2] (setting [10]); 0.0625% in assay [3] (setting [9]); 0.0625% in assay [4] (setting [9]); 0.125% in assay [5] (setting [9]); 0.025% in assay [6] (setting [10]). Moreover, the MIC in assay [7] (setting [9]) is 0.0125%. Moreover, the MIC spread in assay [8] (over the microorganisms) is 0.0125-0.125%.

Consider `CC12CCC(CC1)C(C)(C)O2` [Cineole, 1,8-cineole], for which the MIC is 0.125% in assay [1] (setting [9]); 0.500% in assay [1] (Experiment III); 0.125% in assay [2] (setting [10]); 0.500% in assay [2] (Experiment III, 10^8 cells/ml); 0.125% in assay [3] (setting [9]); 0.500% in assay [3] (Experiment III). In addition, the MIC in assay [4] (setting [9]) was determined as 0.125%; in assay [4] (Experiment III) it was 0.500%; in assay [5] (Experiment III), 0.500%; in assay [6] (setting [10]), 0.125%; in assay [6] (Experiment III, 10^8 cells/ml), 1.000%; in assay [6] (Experiment III, 10^8 cells/ml, listed as 1,8-cineole), 1.0%. Moreover, the MIC amounted to 0.0625% in assay [7] (setting [9]) and 0.500% in assay [7] (Experiment III). In addition, in assay [8], the “highest attained MIC of studied substances” value was 0.5%. Moreover, in assay [8] (subsequent experiment, four times the initial value), the “nearly all MICs” value worked out at 0.5%.
